Experimental data as given in patent US4962109A, “Insecticidally and acaricidally active pyrimidine esters and intermediates therefor” (Imperial Chemical Industries PLC, priority 1985, dated 1990).

Experiments:
Type in all cases: in vivo
[1] = system: Diabrotica balteata (rootworm larvae); assay: Residual test on rootworm larvae (DB), Filter paper/maize seed, mortality; conditions: 48 h, 500 ppm, residual, 2 days, read-out: DB grading of mortality
How it was run: (§1)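 Product dissolved in acetone, diluted in water with 0.01% wetting agent to 500, 250 or 100 ppm; pests and/or host medium (plant or foodstuff) treated. Mortality or knockdown assessed 1–3 days later, graded A (80–100%), B (50–79%) or C (<50%).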

[2] = system: Heliothis virescens (tobacco budworm - larvae); assay: Residual test on tobacco budworm larvae (HV), Cotton leaf, mortality; conditions: 48 h, read-out: HV grading of mortality
How it was run: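 Product in acetone diluted with water containing 0.01% Lissapol NX, at 500, 250 or 100 ppm; pests and/or host medium (here cotton leaf) treated. Mortality scored one to three days later, graded A (80-100%), B (50-79%), C (<50%).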

[3] = system: Musca domestica (houseflies - adults); assay: Knockdown test on houseflies - adults (MD/KD), Cotton wool/sugar; conditions: 500 ppm, 4 hours, read-out: MD/KD grading of knockdown
How it was run: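 Adult houseflies exposed to the compound at 500, 250 or 100 ppm in acetone/water with 0.01% wetting agent, on a cotton wool/sugar medium. Knockdown and mortality assessed, graded A (80-100%), B (50-79%) or C (<50%).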

[4] = system: Blattella germanica (cockroach nymphs); assay: Contact test on cockroach nymphs (BG/C), Plastic pot, mortality; conditions: 48 h, 500 ppm, contact, 2 days, read-out: BG/C grading of mortality
How it was run: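 Cockroach nymphs and/or their medium were treated with aqueous preparations at 500, 250 or 100 ppm (acetone solution diluted in water with 0.01% Lissapol NX wetting agent). Mortality or knockdown was assessed typically 1–3 days later and graded A (80–100%), B (50–79%) or C (<50%).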

[5] = system: Musca domestica (houseflies - adults); assay: Contact test on houseflies - adults (MD), Cotton wool/sugar, mortality; conditions: 72 h, 500 ppm, contact, 3 days, read-out: MD grading of mortality
How it was run: as §1

[6] = system: Tetranychus urticae (spider mites - adult); assay: Contact test on spider mites - adult (TUa), French bean leaf, mortality; conditions: 72 h, 500 ppm, contact, 3 days, read-out: TUa grading of mortality
How it was run: as §1

[7] = system: Spodoptera exigua (lesser army worm - larvae); assay: Residual test on lesser army worm larvae (SP), Cotton leaf, mortality; conditions: 48 h, 500 ppm, residual, 2 days, read-out: SP grading of mortality
How it was run: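 Product dissolved in acetone and diluted in water with 0.01% wetting agent to 500, 250 or 100 ppm; larvae and/or cotton leaf host treated. Mortality or knockdown scored one to three days later and graded A (80-100%), B (50-79%) or C (<50%).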

[8] = system: Nephotettix cincticeps (green leaf hopper - nymphs); assay: Contact test on green leaf hopper nymphs (NC), Rice plant, mortality; conditions: 48 h, 500 ppm, contact, 2 days, read-out: NC grading of mortality
How it was run: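 Product dissolved in acetone, diluted in water with 0.01% wetting agent to 500, 250 or 100 ppm; nymphs and/or host rice plants treated. Mortality or knockdown assessed 1–3 days later, graded A (80-100%), B (50-79%), C (<50%).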

[9] = system: Tetranychus urticae (spider mites - ova); assay: Contact test on spider mites - ova (TUe), French bean leaf, mortality; conditions: 144 h, 500 ppm, contact, 6 days, read-out: TUe grading of mortality
How it was run: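 Graded read-out: A 80-100%, B 50-79%, C below 50% mortality or knockdown, assessed usually 1-3 days post-treatment. Liquid preparations at 500, 250 or 100 ppm by weight, from acetone solution diluted in water with 0.01% wetting agent, applied to pests and/or their host plant or food medium.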

[10] = system: Myzus persicae (aphids); assay: Contact test on aphids (MP), Chinese Cabbage leaf, mortality; conditions: 72 h, 500 ppm, contact, 3 days, read-out: MP grading of mortality
How it was run: as §1

| Structure (SMILES) | mortality at 500 ppm [1] [%] | mortality at 500 ppm [2] [%] | pest or weed control at 500 ppm [3] [%] | mortality at 500 ppm [4] [%] | mortality at 500 ppm [5] [%] | mortality at 500 ppm [6] [%] | mortality at 500 ppm [7] [%] | mortality at 500 ppm [8] [%] | mortality at 500 ppm [9] [%] | mortality at 500 ppm [10] [%] |
| --- | --- | --- | --- | --- | --- | --- | --- | --- | --- | --- |
| CC(C)(C)C(C(=O)OCc1ccc(F)c(Oc2ccccc2)c1)c1cnc(C2CC2)nc1 (racemic) [Compound 201, 4-fluoro-3-phenoxybenzyl (RS)-2-(2-cyclopropylpyrimidin-5-yl)-3,3-dimethylbutanoate] | 80 to 100 | 80 to 100 | 80 to 100 | 50 to 79 | 80 to 100 | 80 to 100 | 80 to 100 | 80 to 100 | 50 to 79 | 80 to 100 |
| C=C(C)C(C(=O)OCc1c(F)c(F)c(COC)c(F)c1F)c1cnc(C(C)(C)C)nc1 (racemic) [Compound 202, 2,3,5,6-tetrafluoro-4-(methoxymethyl)benzyl (RS)-2-[2-(1,1-dimethylethyl)pyrimidin-5-yl]-3-methylbut-3-enoate] | < 50 | 50 to 79 | 80 to 100 | < 50 | < 50 | 80 to 100 | 80 to 100 | 80 to 100 | < 50 | 80 to 100 |
| C[C@@H](OC(=O)[C@@H](c1cnc(C2(C)CC2)nc1)C(C)(C)C)c1cccc(Oc2ccccc2)n1 (racemic) [Compound 203, (RS)-1-(6-phenoxypyrid-2-yl)ethyl (RS)-2-[2-(1-methylcyclopropyl)pyrimidin-5-yl]-3,3-dimethylbutanoate] | < 50 | 80 to 100 | 80 to 100 | 50 to 79 | 80 to 100 | 80 to 100 | 80 to 100 | 80 to 100 | 50 to 79 | 80 to 100 |
| CC1(c2ncc(C(C(=O)OCc3ccc(F)c(Oc4ccccc4)c3)C(C)(C)C)cn2)CC1 (racemic) [Compound 204, 4-fluoro-3-phenoxybenzyl (RS)-2-[2-(1-methylcyclopropyl)pyrimidin-5-yl]-3,3-dimethylbutanoate] | < 50 | 80 to 100 | 80 to 100 | 50 to 79 | 80 to 100 | 80 to 100 | 80 to 100 | 80 to 100 | < 50 | 80 to 100 |
| Cc1ncc(C(C(=O)OC(C)c2cccc(Oc3ccccc3)n2)C(C)(C)C)cn1 (racemic) [Compound 205, RS-1-(6-phenoxypyrid-2-yl)ethyl (RS)-2-(2-methylpyrimidin-5-yl)-3,3-dimethylbutanoate] | < 50 | 80 to 100 | < 50 | < 50 | < 50 | 80 to 100 | 80 to 100 | 80 to 100 | < 50 | 80 to 100 |
| Cc1ncc(C(C(=O)OCc2ccc(F)c(Oc3ccccc3)c2)C(C)(C)C)cn1 (racemic) [Compound 206, 4-fluoro-3-phenoxybenzyl (RS)-2-(2-methylpyrimidin-5-yl)-3,3,-dimethylbutanoate] | 80 to 100 | 80 to 100 | 80 to 100 | 50 to 79 | 80 to 100 | 80 to 100 | 80 to 100 | 80 to 100 | < 50 | 80 to 100 |
| COCc1c(F)c(F)c(COC(=O)C(c2cnc(C3(C)CCCCC3)nc2)C(C)(C)C)c(F)c1F (racemic) [Compound 207, 2,3,5,6-tetrafluoro-4-(methoxymethyl)benzyl (RS)-2-[2-(1-methylcyclohexyl)pyrimidin-5-yl]-3,3-dimethylbutanoate] | < 50 | < 50 | 80 to 100 | < 50 | < 50 | 80 to 100 | < 50 | 80 to 100 | < 50 | 80 to 100 |
| COCc1c(F)c(F)c(COC(=O)C(c2cnc(-c3ccccc3Cl)nc2)C(C)(C)C)c(F)c1F (racemic) [Compound 208, 2,3,5,6-tetrafluorbenzyl-4-(methoxymethyl)-benzyl (RS)-2-[2-(2-chlorophenyl)pyrimidin-5-yl]-3,3-dimethylbutanoate] | < 50 | < 50 | < 50 | < 50 | < 50 | 80 to 100 | < 50 | 80 to 100 | < 50 | 80 to 100 |
| CC(C)(C)C(C(=O)OCc1ccc(F)c(Oc2ccccc2)c1)c1cnc(-c2ccccc2Cl)nc1 (racemic) [Compound 209, 4-fluoro-3-phenoxybenzyl (RS)-2-[2-(2-chlorophenyl)pyrimidin-5-yl]-3,3-dimethylbutanoate] | < 50 | 80 to 100 | < 50 | < 50 | < 50 | 80 to 100 | 50 to 79 | < 50 | < 50 | 50 to 79 |
| C=CC(C)(C)C(C(=O)OCc1c(F)c(F)c(COC)c(F)c1F)c1cnc(C(C)(C)C)nc1 (racemic) [Compound 211, 4-(methoxymethyl)-2,3,5,6-tetrafluorobenzyl (RS)-2-[2-(1,1-dimethylethyl)pyrimidin-5-yl]-3,3-dimethylpent-4-enoate] | < 50 | < 50 | 80 to 100 | < 50 | < 50 | 80 to 100 | 80 to 100 | 80 to 100 | 80 to 100 | 80 to 100 |
| C=CCC(C(=O)OCc1c(F)c(F)c(COC)c(F)c1F)c1cnc(C(C)(C)C)nc1 (racemic) [Compound 212, 4-(methoxymethyl)-2,3,5,6-tetrafluorobenzyl (RS)-2-[2-(1,1-dimethylethyl)pyrimidin-5-yl]pent-4-enoate] | < 50 | < 50 | 80 to 100 | < 50 | < 50 | 80 to 100 | 50 to 79 | 80 to 100 | < 50 | 80 to 100 |
| COCc1c(F)c(F)c(COC(=O)C(c2cnc(C(C)(C)C)nc2)C(F)(F)F)c(F)c1F (racemic) [Compound 213, 4-(methoxymethyl)-2,3,5,6-tetrafluorobenzyl (RS)-2-[2-(1,1-dimethylethyl)pyrimidin-5-yl]-3,3,3-trifluoropropionate] | < 50 | < 50 | 80 to 100 | 50 to 79 | < 50 | 80 to 100 | < 50 | < 50 | < 50 | 50 to 79 |
| CC(C)(C)c1ncc(C(C(=O)OCc2c(F)c(F)c(CC3CC3(Cl)Cl)c(F)c2F)C(C)(C)C)cn1 (racemic) [Compound 216, 4-[(2,2-dichlorocyclopropyl)methyl]-2,3,5,6-tetrafluorobenzyl (RS)-2-[2-(1,1-dimethylethyl)pyrimidin-5-yl]-3,3-dimethylbutanoate] | < 50 | < 50 | < 50 | < 50 | < 50 | 80 to 100 | 50 to 79 | 50 to 79 | < 50 | < 50 |
